Experimental data as given in US9750724B2, “Use of an aromatase inhibitor for the treatment of hypogonadism and related diseases” (Mereo BioPharma 2 Limited, priority 2011, dated 2017).

Experiments:
[1] = Pharmacokinetics after oral administration to rats; type: in vivo, rat
Source text: In one embodiment, the compound may even show an apparent elimination half-life of at least about 30 days or even at least 35 days. […] The results observed were completely unexpected in view of the previous rat experiments showing a half-life of about a week [Batzl-Hartmann et al, 1994 and Bhatnagar et al, 1996]. This surprising extremely long half-life of the compound in humans gives rise to the particular dosing scheduled of the invention.

[2] = Single ascending dose study in pre- and post-menopausal women, pharmacokinetics; type: in vivo, human; settings: for AUC(0-t): AUC (0-tlast) Mean; for Cmax: Cmax Mean
Source text: The drug concentration in plasma and/or serum samples can be determined by a number of different ways, e.g. HPLC or LC-MS/MS analyses. […]
(§1) A minimal toxic dose (MTD) was not reached. […] Table 3 presents the PK parameters based on preliminary analysis of the concentration-time profile obtained from this study.

[3] = target: T1, human placental microsomal aromatase (Homo sapiens, UniProt P11511); settings: microsomal fraction of human placenta; Batzl-Hartmann et al, 1994; cited from earlier work
T1 construct: from tissue; host or cells: human placenta, microsomal fraction
T1 sequence (P11511 1-503): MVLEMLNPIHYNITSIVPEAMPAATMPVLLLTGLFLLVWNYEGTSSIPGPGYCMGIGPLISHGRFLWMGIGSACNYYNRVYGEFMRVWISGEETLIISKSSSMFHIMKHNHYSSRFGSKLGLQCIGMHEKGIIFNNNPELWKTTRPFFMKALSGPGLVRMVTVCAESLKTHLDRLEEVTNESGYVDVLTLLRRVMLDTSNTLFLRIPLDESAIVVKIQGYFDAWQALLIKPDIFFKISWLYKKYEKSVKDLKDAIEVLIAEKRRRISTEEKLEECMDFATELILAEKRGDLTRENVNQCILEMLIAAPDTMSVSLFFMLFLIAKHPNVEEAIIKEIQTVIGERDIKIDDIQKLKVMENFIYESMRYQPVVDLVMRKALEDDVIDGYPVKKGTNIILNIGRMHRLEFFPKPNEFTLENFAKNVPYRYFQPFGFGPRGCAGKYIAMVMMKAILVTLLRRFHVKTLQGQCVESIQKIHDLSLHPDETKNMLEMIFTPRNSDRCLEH

[4] = Human ADME study, single oral dose of 1 mg 14C-CGP47645 in healthy postmenopausal women; type: in vivo
Source text: The study was a single dose, single group, open label ADME study of 8 healthy postmenopausal women. […] The study design consisted of a 28-day screening period, one baseline visit (Day −1), a domiciled period beginning from admission on Day −1 through discharge on Day 7, 2 outpatient visits for PK blood collection on Days 14 (±1) and 21 (±1), 2 subject specific adipose tissue collection visits, and an end-of-study 6 month safety follow-up visit.
The primary goal of this study was to assess the partitioning of CGP47645 into abdominal adipose tissue as a measure of peripheral tissue targeting and to assess whether there may be a longer T½ metabolite, as well as to elucidate the metabolic profile, obtain information on routes of excretion and mass balance. Adipose tissue samples were collected in a sparse sampling protocol, where each subject underwent two collections of adipose tissue, with each subject biopsied at different times.

[5] = tested on: estrone, estrone sulfate and estradiol; assay: Single ascending dose study in women, pharmacodynamics (estrogen suppression); type: in vivo, human
Experimental: Patients received either 0.1 mg, 1 mg, and 10 mg drug substance containing hard gelatin capsules or appropriate matching placebo capsules.
as §1

[6] = female, human, in vivo, 0.01 mg
[7] = female, human, in vivo, 0.03 mg

For N#Cc1ccc(C(F)(c2ccc(C#N)cc2)n2cncn2)cc1 [CGP47645, 4,4′-[fluoro-(1-H-1,2,4-triazol-1-yl)methylene]bisbenzonitrile], the “exposure (AUC) versus dose” value [1] was “proportional to the administered dose”, the half-life ([1]; rat, in vivo, read-out: T½ (converted)) was 3.12 days and the Tmax [2, 6] was 0.0417 days. For the same compound, the AUC(0-t) [2, 6] was 1.4 ng·h/mL, the Cmax [2, 6] was 0.2 ng/mL and the half-life ([2]; female, human, in vivo, 0.01 mg, T1/2 Mean) was 2.3 days. It also gave an AUC(0-t) [2, 7] of 24.1 ng·h/mL, a Cmax [2, 7] of 0.4 ng/mL and a half-life ([2]; female, human, in vivo, 0.03 mg, T1/2 Mean) of 16.5 days. The “T1/2 Mean” value ([2]; female, human, in vivo, 0.1 mg) was 23.5 days, the Tmax ([2]; female, human, in vivo, 0.1 mg) was 0.0417 days and the “Tmax Median” value ([2]; female, human, in vivo, 0.1 mg) was 0.042 days. The AUC(0-t) ([2]; female, human, in vivo, 0.1 mg) was 123 ng·h/mL, the Cmax ([2]; female, human, in vivo, 0.1 mg) was 1.8 ng/mL and the half-life ([2]; female, human, in vivo, 0.1 mg, T1/2 Mean) was 18.2 days. The Tmax ([2]; female, human, in vivo, 0.3 mg) was 0.0417 days, the AUC(0-t) ([2]; female, human, in vivo, 0.3 mg) was 605 ng·h/mL and the Cmax ([2]; female, human, in vivo, 0.3 mg) was 5.1 ng/mL. The half-life ([2]; female, human, in vivo, 0.3 mg, T1/2 Mean) was 23.5 days, the Tmax ([2]; female, human, in vivo, 1 mg) was 0.0417 days and the AUC(0-t) ([2]; female, human, in vivo, 1 mg) was 3200 ng·h/mL. For the same compound, the Cmax ([2]; female, human, in vivo, 1 mg) was 12.8 ng/mL, the half-life ([2]; female, human, in vivo, 1 mg, T1/2 Mean) was 22.4 days and the Tmax ([2]; female, human, in vivo, 3 mg) was 0.0417 days. The AUC(0-t) ([2]; female, human, in vivo, 3 mg) was 10100 ng·h/mL, the Cmax ([2]; female, human, in vivo, 3 mg) was 38.4 ng/mL and the half-life ([2]; female, human, in vivo, 3 mg, T1/2 Mean) was 25 days. For the same compound, the Tmax ([2]; female, human, in vivo, 10 mg) was 0.0833 days, the AUC(0-t) ([2]; female, human, in vivo, 10 mg) was 41700 ng·h/mL and the Cmax ([2]; female, human, in vivo, 10 mg) was 124 ng/mL. The half-life ([2]; female, human, in vivo, 10 mg, T1/2 Mean) was 27.3 days, the Tmax ([2]; female, human, in vivo, 20 mg) was 0.0833 days and the AUC(0-t) ([2]; female, human, in vivo, 20 mg) was 76700 ng·h/mL. The Cmax ([2]; female, human, in vivo, 20 mg) was 270 ng/mL, the half-life ([2]; female, human, in vivo, 20 mg, T1/2 Mean) was 26.9 days and the half-life ([2]; female, human, in vivo, half life) was about 25 days. For the same compound, the half-life ([2]; female, human, in vivo, half-life in serum) was 22 to 29 days, the Tmax ([2]; female, human, in vivo, po) was 0.021 to 0.083 days and the “median Tmax” value ([2]; female, human, in vivo, po) was at most 0.042 days. For the same compound, the half-life ([2]; female, human, in vivo, po, half-life) was 23 to 27 days, the “differences in pharmacokinetics between post- and pre-menopausal women” value ([2]; in vivo) was “No differences” and the “dose proportionality of pharmacokinetics” value ([2]; single doses 0.01 to 20 mg, women) was “dose proportional pharmacokinetics”. The “mode of aromatase inhibition” value [3] was “competitive inhibitor”, the metabolites in plasma ([4]; LSC and LC-MS) was “No metabolites were detected in plasma” and the Kp ([4]; female, human, abdominal adipose tissue, oral, 1 mg, postmenopausal women, read-out: accumulation in fat tissue in comparison to exposure in plasma) was 1 to 3. For the same compound, the half-life ([4]; female, human, single oral 1 mg, plasma, parent drug, read-out: terminal elimination half-life (converted)) was about 28 days, the safety and tolerability ([4]; single oral 1 mg 14C-CGP47645) was “safe and well tolerated” and the “share of renally eliminated radioactivity recovered as unchanged drug” value ([4]; single oral 1 mg 14C-CGP47645) was 16%. For the same compound, the “share of total radioactivity excreted after 6 days that was renally eliminated” value ([4]; single oral 1 mg 14C-CGP47645) was “Approximately 84%”, the absorption ([4]; single oral 1 mg, healthy postmenopausal women) was “fast and almost complete absorption” and the “duration of persistent plasma concentrations post-dose” value ([4]; single oral 1 mg, terminal phase) was over 4000 h. The “main metabolites identified in urine” value ([4]; three main metabolites) was “a carbinol derivative and two glucuronides”, the “estrone suppression compared with letrozole” value ([5]; postmenopausal women, doses of 0.1 mg and 0.3 mg, letrozole 2.5 mg) was “at least equal to letrozole” and the “inhibition of estrone, estrone sulfate and estradiol” value ([5]; single doses, women) was “dose-dependent inhibition”.
